The values that follow come from US8859819B2, “Sulphurated derivatives of resorcinol, preparation of same and cosmetic uses thereof” (Pierre Fabre Dermo-Cosmetique, priority 2009, dated 2014).

≈ marks a conversion by molar mass, not a printed value.

Assay [1] concerns P. acnes IP53.117 ATCC6919. The experiment in a line: Minimal inhibitory concentration (MIC), microdilution. The class given is cell-based, Propionibacterium acnes. The method, then:
(§1) E) Determination of the Minimal Inhibitory Concentration (MIC): This test is used to determine the antibacterial activity of a compound. Tests are carried out with 4 bacterial strains using the principle of microdilution. The MIC are determined by micromethod in liquid medium. The successive dilutions according to the products tested in the culture broth (Trypcase soy) are carried out on 96 well microplates in a final volume of 0.1 ml. The wells are seeded with 0.01 ml of bacterial suspensions titrated at around 10^7 UFC/ml. The microplates are incubated under optimal growth conditions and the MIC is read visually.
Background: In broth dilution the organism is exposed to a series of concentrations in liquid medium.

Assay [2] can be described thus: Antioxidant capacity by chemiluminescence (Photochem Analytik Jena).
The target in assay [3] is T1, mushroom tyrosinase (Agaricus bisporus, UniProt C7FF04).
T1 construct: purchased Sigma T-3824
T1 sequence (C7FF04 1-392 limits assumed): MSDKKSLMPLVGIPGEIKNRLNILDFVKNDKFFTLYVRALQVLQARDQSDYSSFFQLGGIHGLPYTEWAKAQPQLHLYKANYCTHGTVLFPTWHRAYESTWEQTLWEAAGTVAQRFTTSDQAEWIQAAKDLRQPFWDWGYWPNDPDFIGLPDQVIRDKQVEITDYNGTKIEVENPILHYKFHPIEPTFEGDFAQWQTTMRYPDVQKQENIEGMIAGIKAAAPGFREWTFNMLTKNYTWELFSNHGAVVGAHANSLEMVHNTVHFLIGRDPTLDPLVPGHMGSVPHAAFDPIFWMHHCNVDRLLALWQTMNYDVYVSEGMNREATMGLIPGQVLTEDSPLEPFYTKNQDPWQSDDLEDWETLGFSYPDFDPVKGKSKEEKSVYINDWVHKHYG
Put plainly: Tyrosinase inhibition test (in vitro acellular depigmenting activity). The class given is biochemical. The conditions noted are these: class symbol; assay from 250 to 150 μM; overall tyrosinase activity (MPMOg), L-tyrosine substrate.

A short description of assay [4]: Protection of linoleic acid following a UV stress (Fenton conditions, MDA-TBA assay). Details: % Protection Linoleic acid under UV/Fenton: concentration or dose not given beside the values. The conditions noted are these: UV + H2O2 + iron II.
The test system of another assay is B16-F10 cells. Put plainly: Melanin assay test in B16-F10 cells. Type of assay: cell-based, murine. The conditions noted are these: Mus musculus, B16-F10, 72 h; read-out: B16 activity results -% at X μM.
In assay [5] the test system is Staphylococcus epidermidis IP6821. The experiment in a line: Minimal inhibitory concentration (MIC), microdilution. Type of assay: cell-based. The method, then:
as §1

Assay [6] concerns Staphylococcus aureus IP4.83 ATCC6538. The description is as above. The class given is cell-based. The method, then:
as §1

Assay [7] concerns Escherichia coli IP53126 ATCC8739. Described as above. The class given is cell-based. The procedure:
as §1

The target of assay [8] is T1, mushroom tyrosinase. The experiment in a line: Tyrosinase inhibition test (in vitro acellular depigmenting activity). The class given is biochemical. The following applies: polyphenol oxidase (PPO) function; reference molecules for the test.

Take `CCCCCCCCOc1cc(O)ccc1Sc1ccc(O)cc1O` [Example 7, 4-(4-hydroxy-2-(octyloxy)phenylthio)benzene-1,3-diol]: the “antibacterial activity against Propionibacterium acnes (in words)” value in assay [1] was “strong antibacterial activity”. Besides, the MIC (in general, the least concentration at which growth counts as inhibited) came to 0.09 mg/L (≈ 0.248 µM) in [1] (Cutibacterium acnes, P. acnes IP53.117 ATCC6919); 0.39 mg/L (≈ 1.08 µM) in [5]; 0.78 mg/L (≈ 2.15 µM) in assay [6]; 390 mg/L (≈ 1080 µM) in assay [7]. In addition, in assay [2] (Trolox equivalent, lower = stronger antioxidant), the “μg of sample for 1 μg of Trolox” value is listed as 3.4 μg of sample for 1 μg of Trolox. At mushroom tyrosinase [3], the “Tyrosinase depigmenting activity result” value is on record as “+ + +”. In addition, in [4], the “% Protection Linoleic acid under UV/Fenton” value was 92%. Also, the inhibition at 10 µM in the assay on B16-F10 cells was 50%.

For `O=C1O[C@H]([C@@H](O)CO)C(O)=C1O` [Vitamin C, reference compound], the half-inhibitory concentration (IC50) (commonly the concentration that inhibits the measured activity by half) against mushroom tyrosinase [8] was in the range of 20 to 40 µM. The “Activity (antioxidant, interpretation scale)” value in assay [2] (reference products of the interpretation scale) is “Very good (0.1 to 3.0)”.
